Laboratory results reported in patent US7691827B2, “Amide prodrug of gemcitabine, compositions and use thereof” (Eli Lilly and Company, priority 2004, dated 2010).

Assays:
[1] = result of first pass metabolism; cited from earlier work
[2] = cited from earlier work
[3] = 7-Day Dog Study (oral toxicity); assay type: in vivo; details: oral capsule once daily for 7 days, beagle dogs
Procedure: To evaluate the toxicity profile of a compound of formula I when administered to Beagle dogs for 7 days, and to determine the plasma concentrations of a compound of formula I and metabolites gemcitabine HCl and deoxydifluorouridine after 1 or 7 doses, a 7-day dog study is conducted.
Male and female beagle dogs 6-48 months of age are dosed orally via capsule with a compound of formula I. A range of doses is selected in an effort to determine a maximum tolerated dose and dose limiting toxicity. A dose volume of 1 mL/kg is used and doses aree administered once daily.
Clinical signs, body weight, food consumption, body temperature, hematology (including coagulation), clinical chemistry, urinalysis, plasma concentrations of the compound of Example I and its metabolites gemcitabine HCl and deoxydifluorouridine, and pathology (including gross pathology, organ weights, and histopathology) were evaluated.

[4] = Liver S9 Hydrolysis Assay (monkey); assay type: in vitro ADME, cynomolgus monkey
Procedure: (§1) Liver S9 Hydrolysis Assay
(§2) Hydrolysis of a compound of formula I by liver enzymes is determined by liver hydrolysis assay. Liver homogenates are prepared from CD-1 mouse, beagle dog, cynomolgus monkey, and human livers. Liver tissues are cut into small pieces using scissors, then, homogenized in 50 mM acetate buffer using Polytron (PT-10-85) for 1 min. Post-mitochondrial (S9) fractions are prepared from each by ultracentrifugation at 9,000×g at 4° C. for 10 min. Mouse, dog and monkey liver S9 fractions are prepared from freshly collected tissues, while human liver S9 are prepared from previously frozen tissue. After centrifugation, the supernatant is collected and protein concentrations are determined by standard spectrophotometric techniques. The prepared S9 fractions are store at −70° C. before using.
(§3) The hydrolytic rates of a compound of formula I in liver S9 is determined by incubating compound (10 uM) with S9 (2 mg/mL of total protein) in phosphate buffered saline at pH 8.0 for up to 6 hours. Concentrations of gemcitabine released via hydrolysis are determined by LC/MS analysis after the reaction is quenched with acetonitrile. Hydrolysis rates are calculated at 30 minutes in screening experiments and from the slope of the linear portion of the hydrolysis vs. time curves in characterization studies of a compound of formula I.

[5] = Liver S9 Hydrolysis Assay (mouse); assay type: in vitro ADME, CD-1 mouse; details: mouse liver S9, 10 uM, pH 8.0
Procedure: as §1, §2, §3

[6] = Liver S9 Hydrolysis Assay (human); assay type: in vitro ADME
Procedure: as §1, §2, §3

[7] = Monkey Pharmacokinetics Assay; assay type: in vivo; details: administered intravenously to cynomolgus monkeys
Procedure: Monkey Pharmacokinetics Assay
The pharmacokinetic profiles of gemcitabine and a compound of formula I, are assessed in cynomolgus monkeys following oral and intravenous administration in a crossover design. Compounds are administered at doses selected to contain approximately 10 mg/kg of gemcitabine. Blood samples are collected into EDTA-treated tubes containing tetrahydrouridine (0.5 mM final concentration in blood) at designated intervals for up to 48 hours. Animals are pretreated with ranitidine (intravenous, 5 mg/kg) in the oral dosing periods. Plasma is isolated by centrifugation and frozen prior to analysis. Plasma concentrations of gemcitabine and a compound of formula I are determined by LC/MS/MS analysis. Pharmacokinetic parameters are determined using WinNonlin software (Pharsight Corp., Mountain View, Calif.).

[8] = Small Intestine Homogenate Assay (mouse); assay type: in vitro ADME, CD-1 mice; details: mouse SIH, 100 uM, pH 7.5
Procedure: (§4) Small Intestine Homogenate Assay
(§5) To determine the stability of a compound of formula I to enzymatic hydrolysis in the intestine, crude homogenates of small intestinal epithelial cells are prepared from sections of the upper small intestine from CD-1 mice, beagle dogs, cynomolgus monkeys, and humans. Mouse and dog homogenates are prepared from freshly collected tissue, while monkey and human homogenates are prepared from previously frozen tissues. Cells are gently scraped from intestinal segments, pooled, and homogenized in 50 mM acetate buffer using Polytron (PT-10-85). Protein concentrations are determined by standard spectrophotometric techniques. The prepared homogenates are store at −70° C. before using.
(§6) The hydrolytic rates of a compound of formula I in small intestinal homogenates (SIH) is determined by incubating a compound of formula I (100 uM) with SIH (2.5-5 mg/mL of total protein) in acetate at pH 7.5 for up to 6 hours. Concentrations of gemcitabine released via hydrolysis is determined by LC/MS analysis after the reaction is quenched with acetonitrile. Hydrolysis rates are calculated at 30 minutes in screening experiments and from the slope of the linear portion of the hydrolysis vs. time curves in characterization studies of a compound of formula I.

[9] = 4-Day Mouse Screen (oral toxicity); assay type: in vivo; details: oral gavage once daily for 4 days, molar equivalent of 8-mg/kg gemcitabine, female CD-1 mice
Procedure: To evaluate the toxicity produced by orally administered compound of formula I when administered daily to female […] mice for 4 days, the gastrointestinal toxicity profiles of a compound of formula I is compared with the historical results for gastrointestinal toxicity when gemcitabine is administered orally at 8 mg/kg in a 4-day mouse study.
Female CD-1 mice 5-8 weeks of age are dosed with a compound of formula I by oral gavage. A dose level is chosen to approximate a molar equivalent of 8-mg/kg gemcitabine. A dose volume of 10 mL/kg is used and doses are administered once daily on 4 consecutive days. Necropsy is performed approximately 5-8 hours following the 4th dose.
Clinical signs, clinical chemistry, gross pathology, and limited histopathology (ileum, jejunum, and liver) are evaluated.

Mouse Pharmacokinetics = assay type: in vivo, CD-1 mice
Procedure: The pharmacokinetic profiles of gemcitabine and a compound of formula I, are assessed in male CD-1 mice following oral administration at doses selected to contain approximately 10 mg/kg of gemcitabine. Designated animals (n=3/time point/compound) are sacrificed at 0.08, 0.25, 0.5, 1, 2, and 6 hours after dosing, and systemic blood samples are collected into EDTA-treated tubes containing tetrahydrouridine (0.5 mM final concentration in blood) to inhibit further metabolism of gemcitabine. An additional 3 animals are sacrificed at 0.08 hours for collection of hepatic portal blood. Plasma is isolated by centrifugation and frozen prior to analysis. Plasma concentrations of gemcitabine and prodrugs are determined by LC/MS/MS analysis. Pharmacokinetic parameters are calculated using WinNonlin software (Pharsight Corp., Mountain View, Calif.). Pharmacokinetic parameters of each prodrug are compared to those determined from administration of oral gemcitabine hydrochloride in a similar study design.

[10] = 14 Day Mouse Study (oral toxicity and exposure); assay type: in vivo; details: 14 days oral gavage, CD-1 mice
Procedure: A 14-Day Mouse Study is conducted to evaluate whether a compound of formula I produces adverse effects in mice following 14 days of oral gavage dosing and to determine the plasma concentrations of a compound of formula I and its metabolites gemcitabine HCl and deoxydifluorouridine after 1 or 14 doses.
Male and female CD-1 mice 9-12 weeks of age are dosed with a compound of formula I […] by oral gavage. A range of doses is selected in an effort to determine a maximum tolerated dose and dose limiting toxicity. A dose volume of 10 mL/kg is used and doses are administered once daily.
Clinical signs, body weight, food consumption, hematology, clinical chemistry, plasma concentrations of a compound of formula I and metabolites gemcitabine HCl and deoxydifluorouridine, and pathology (including gross pathology, organ weights, and histopathology) are evaluated.

[11] = Small Intestine Homogenate Assay (human); assay type: in vitro ADME, humans; details: human SIH
Procedure: as §4, §5, §6

[12] = pH Chemical Stability Assay; assay type: physicochemical; details: pH range 1 to 8, after four hours, 40° C., 100 mcg/mL
Procedure: pH Chemical Stability Assay
The pH chemical stability is assessed using a semi-automated HPLC technique. Samples of compound of formula I are prepared at 100 mcg/mL in five buffers representing the pH range throughout the gastrointestinal tract (pH1-pH8). Samples are loaded onto an HPLC autosampler incubated at 40° C. Samples are repeatedly injected on the HPLC at hourly intervals for up to 24 hours with an HPLC column that separates a compound of formula I from gemcitabine. The peak area of the compound of formula I is monitored by UV detection over time and are compared to initial peak areas to determine stability.

[13] = Liver S9 Hydrolysis Assay (dog); assay type: in vitro ADME, beagle dog; details: dog liver S9, 10 uM, pH 8.0
Procedure: as §1, §2, §3

[14] = Small Intestine Homogenate Assay (dog); assay type: in vitro ADME, beagle dogs; details: dog SIH, 100 uM, pH 7.5
Procedure: as §4, §5, §6

[15] = Small Intestine Homogenate Assay (monkey); assay type: in vitro ADME, cynomolgus monkeys; details: monkey SIH
Procedure: as §4, §5, §6

[16] = tested on: HCT-116 colon tumor cells; assay: In Vivo Assay, HCT-116 colon tumor xenograft; details: oral gavage, HCT-116 xenograft in female nude mice
Procedure: HCT-116 colon tumor cells are grown in vitro under standard tissue culture conditions, harvested, washed, and 5×10^6 cells (1:1 suspension in Matrigel, Collaborative Biomedical Products, Inc) are injected subcutaneously in the rear flank of female nude mice (Charles River, CD1 nu/nu, 24-27 g, irradiated with 450 Rads within 24 h of implantation). Tumors are allowed to grow to ˜100 mm^3 before initiation of therapy. Vehicle control, a compound of formula I or gemcitabine-HCl at various dose levels are administered to the mice by oral gavage (10 ml/kg volume) at the times indicated in the individual experiments. Compounds are administered either daily for fourteen days, every other day for a total of seven doses, or every third day for a total of four doses. […] Tumor size is determined by caliper measurements and tumor volume (mm^3) is estimated from the formula l×w^2×0.536, where l is the larger and w is the smaller of perpendicular diameters. All data (tumor measurements and animal weights) are captured twice-weekly beginning with the start of therapy and analyzed using a computer based tumor measurement system.

Question: What does the source list for Nc1ccn([C@@H]2O[C@H](CO)[C@@H](O)C2(F)F)c(=O)n1 [gemcitabine, 2′,2′-difluoro-2′-deoxycytidine]?
Answer: oral bioavailability [1]: poor oral bioavailability; death or gastrointestinal toxicity ([2]; comparable exposures via intravenous dosing, previous mouse studies): did not result in death or gastrointestinal toxicity; intestinal lesions ([2]; single oral (gavage) dose of 167, 333, or 500 mg/kg, mice): moderate-to-marked loss of mucosal epithelium (atrophic enteropathy)

Question: For CCCC(CCC)C(=O)Nc1ccn([C@@H]2O[C@H](CO)[C@@H](O)C2(F)F)c(=O)n1 [Example 1, 1-(2,2-difluoro-2-deoxy-β-D-ribofuranosyl)-4-(2-propyl-1-oxopentyl)aminopyrimidin-2-one], which “hematotoxicity and the other toxicities, including GI toxicity” value [3] is on record?
Answer: Its value is “consistent with what has been previously described for parenteral gemcitabine”.

Question: And the “hydrolysis in liver S9” value ([4]; monkey liver S9, 10 uM, pH 8.0)?
Answer: The value was “hydrolyzed”.

Question: And the “total compound converted to gemcitabine” value ([4]; monkey liver S9, 6 hour incubation)?
Answer: Its value is “approximately 3.5%”.

Question: And the “hydrolysis in liver S9” value [5]?
Answer: The value was “hydrolyzed”.

Question: What about the “hydrolysis in liver S9” value ([6]; human liver S9, 10 uM, pH 8.0) of the same compound?
Answer: The value was “hydrolyzed”.

Question: And the “total compound converted to gemcitabine” value ([6]; human liver S9, 6 hour incubation)?
Answer: Its value is “approximately 3.5%”.

Question: What about the “hydrolysis in vivo to release gemcitabine” value [7] of the same compound?
Answer: The value was “extensively hydrolyzed”.

Question: And the “rate of hydrolysis in small intestine homogenate” value (“rate of hydrolysis” below) [8]?
Answer: The value was “slow rate of hydrolysis”.

Question: What about the “severity of atrophic intestinal changes or enteropathy versus gemcitabine HCl” value [9] of the same compound?
Answer: The value was “significant reduction”.

Question: What about the “concentration of intact prodrug in hepatic portal plasma” value (Mouse Pharmacokinetics; 0.08 hours after oral dosing, CD-1 mice) of the same compound?
Answer: Its value is “relatively high concentrations”.

Question: And the “hydrolysis in vivo to release gemcitabine” value (Mouse Pharmacokinetics; administered orally to CD-1 mice, approx. 10 mg/kg of gemcitabine)?
Answer: The value was “extensively hydrolyzed”.

Question: What about the “plasma exposure to gemcitabine compared to direct oral administration of gemcitabine hydrochloride” value (Mouse Pharmacokinetics; oral, CD-1 mice) of the same compound?
Answer: Its value is “increased”.

Question: What about the “enteropathy versus gemcitabine HCl on a molar equivalent basis” value [10] of the same compound?
Answer: The value was “less enteropathy”.

Question: And the “systemic exposure to gemcitabine HCl versus gemcitabine HCl on a molar equivalent basis” value [10]?
Answer: The value was “approximately twice”.

Question: And the “rate of hydrolysis” value ([11]; 100 uM, pH 7.5)?
Answer: Its value is “slow rate of hydrolysis”.

Question: And the “total compound converted to gemcitabine” value ([11]; 6 hour incubation)?
Answer: The value was “less than 3%”.

Question: What about the “compound degraded to gemcitabine” value [12] of the same compound?
Answer: Its value is “Less than 25%”.

Question: And the “hydrolysis in liver S9” value [13]?
Answer: Its value is “hydrolyzed”.

Question: What about the “rate of hydrolysis” value [14] of the same compound?
Answer: The value was “slow rate of hydrolysis”.

Question: And the “rate of hydrolysis” value ([15]; 100 uM, pH 7.5)?
Answer: Its value is “slow rate of hydrolysis”.

Question: And the “total compound converted to gemcitabine” value ([15]; 6 hour incubation)?
Answer: Its value is “less than 3%”.

Question: What about the “antitumor efficacy versus equivalent dose of gemcitabine-HCl” value [16] of the same compound?
Answer: The value was “comparable”.

Question: And the “overall toxicity versus equivalent amount of gemcitabine-HCl” value [16]?
Answer: Its value is “less overall toxicity”.
